In patent US5153176A, “Tripeptide derivatives and protease inhibitor composition comprising the same” (Nitto Boseki Co., Ltd., priority 1990, dated 1992):
Counter-ions that a name gives are not always drawn. Like-named read-outs stand apart in the source and are kept apart here. Where a SMILES comes first, the peptide text is derived from it. [ ]: non-standard residue; d: D form. The star is where a group is joined. Tos = Cc1ccc(S(=O)(=O)*)cc1; PhAc = O=C(Cc1ccccc1)*

Experiments:
Type in all cases: biochemical
plasmin = target: T1, plasmin (Homo sapiens, UniProt P00747); assay: Assay for inhibitory activity against plasmin (synthetic substrate PS-994); details: for IC50: PS-994, pH 7.8, 37° C.
T1 construct: purchased Sankyo (Sankyo Color Test α2 -PI Assay Kit Standard)
T1 sequence (P00747 581-810 limits assumed, species assumed): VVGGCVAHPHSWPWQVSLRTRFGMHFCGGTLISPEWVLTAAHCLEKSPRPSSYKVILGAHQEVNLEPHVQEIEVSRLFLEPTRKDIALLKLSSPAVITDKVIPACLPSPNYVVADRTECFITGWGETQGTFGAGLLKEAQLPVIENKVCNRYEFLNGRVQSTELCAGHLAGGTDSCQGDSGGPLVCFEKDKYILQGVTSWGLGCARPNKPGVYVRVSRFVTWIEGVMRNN
T1 sequence (P00747 97-580 partner limits assumed, species assumed): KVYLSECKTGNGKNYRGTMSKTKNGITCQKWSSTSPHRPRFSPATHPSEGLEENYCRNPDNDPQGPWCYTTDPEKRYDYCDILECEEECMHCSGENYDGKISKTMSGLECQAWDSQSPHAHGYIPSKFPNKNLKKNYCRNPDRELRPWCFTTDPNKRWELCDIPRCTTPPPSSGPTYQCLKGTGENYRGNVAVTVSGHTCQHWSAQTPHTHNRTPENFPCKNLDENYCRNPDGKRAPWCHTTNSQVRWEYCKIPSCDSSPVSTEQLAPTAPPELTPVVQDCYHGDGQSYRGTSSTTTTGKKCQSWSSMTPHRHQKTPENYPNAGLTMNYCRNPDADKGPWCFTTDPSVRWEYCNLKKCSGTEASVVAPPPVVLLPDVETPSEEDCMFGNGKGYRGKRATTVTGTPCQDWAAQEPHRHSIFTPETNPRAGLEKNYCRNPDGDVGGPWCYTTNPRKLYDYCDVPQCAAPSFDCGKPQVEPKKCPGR
Excerpt: (§1) As synthetic substrate used to examine the activity of the inhibitor for inhibiting substrate decomposition with the enzyme, there were used PS-994 (H-D-Lys(Tos)-Phe-Lys-CHA.2HCl, manufactured by Nitto Boseki Co., Ltd.) for plasmin, PS-915 (H-D-Phe-Pro-Arg-CHA.2HCl, manufactured by Nitto Boseki Co., Ltd.) for thrombin and trypsin, PS-2000 (Z-D-Lys(HCO)-Gly-Arg-CHA.HCl, manufactured by Nitto Boseki Co., Ltd.) for factor Xa, S-2302 (H-D-Pro-Phe-Arg-pNA, manufactured by Kabi Co.) for kallikrein, and MUK-34: [drawing 5] for urokinase.
(§2) As plasmin, thrombin, trypsin, factor Xa, kallikrein and urokinase, there were used 0.3 CU/ml of Sankyo Color Test α2 -PI Assay Kit Standard, 1.2 NIH U/ml of Sankyo Color Test ATIII Assay Kit, 2 μg/ml of Code 3703 manufactured by Worsingstone Co., 0.25 U/ml of human factor Xa manufactured by Boehringer Mannheim, 0.12 U/ml of human plasma kallikrein manufactured by Kabi Co., and 1000 U/ml of Mochida Pharmaceutical Urokinase 60,000 (60,000 U/vial), respectively. In the case of CHA type substrate, a color-forming termination solution for Sankyo Color Test Kit was used. Enzyme reactions were carried out at 37° C.
Assay For Inhibitory Activity Against Plasmin
Each aqueous solution (0.1 ml) of the inhibitor having various concentrations was added to 0.4 ml of buffer (150 mM sodium chloride aqueous solution containing 100 mM Tris, pH 7.8) and the mixture was heated for 5 minutes. After 0.2 ml of the plasmin solution was added thereto, the mixture was reacted for 5 minutes. After 0.1 ml of PS-994 solution (10 mM) was added thereto, and the mixture was again reacted for 5 minutes. Then, 2.0 ml of the color-forming termination solution was added to the reaction mixture. Then the mixture was allowed to stand for 10 minutes and absorbance was measured at 700 nm. A concentration of the inhibitor in the reaction system showing 1/2 absorbance that of the case where no inhibitor was present was determined to be IC50.

thrombin = target: T2, thrombin (Homo sapiens, UniProt P00734); assay: Assay for inhibitory activity against thrombin (synthetic substrate PS-915); details: for IC50: PS-915, pH 8.5, 37° C.
T2 construct: purchased Sankyo (Sankyo Color Test ATIII Assay Kit)
Excerpt: as §1, §2
Assay For Inhibitory Activity Against Thrombin
Each aqueous solution (0.1 ml) of the inhibitor having various concentrations was added to 0.4 ml of buffer (150 mM sodium chloride aqueous solution containing 150 mM Tris, pH 8.5) and the mixture was heated for 5 minutes. Then, 0.2 ml of the thrombin solution was added thereto and the mixture was reacted for 5 minutes. After 0.1 ml of PS-915 solution (10 mM) was added thereto, the mixture was again reacted for 5 minutes. Then, 2 ml of the color-forming termination solution was added to the reaction mixture. Then the mixture was allowed to stand for 10 minutes and absorbance was measured at 700 nm. IC50 was determined by the method described above.

trypsin = target: T3, trypsin (Bos taurus, UniProt P00760); assay: Assay for inhibitory activity against trypsin (synthetic substrate PS-915); details: for IC50: PS-915, pH 8.0, 37° C.
T3 construct: purchased Worsingstone Co. (so in the source)
T3 sequence (P00760 24-246): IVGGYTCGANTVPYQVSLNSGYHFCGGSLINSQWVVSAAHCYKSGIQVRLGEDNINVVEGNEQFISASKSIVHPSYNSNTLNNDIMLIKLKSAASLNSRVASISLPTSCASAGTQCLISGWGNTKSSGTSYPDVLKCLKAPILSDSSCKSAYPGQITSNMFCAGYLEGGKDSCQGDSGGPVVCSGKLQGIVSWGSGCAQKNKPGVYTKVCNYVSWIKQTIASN
Excerpt: as §1, §2
Assay For Inhibitory Activity Against Trypsin
After 0.1 ml of an aqueous solution of the inhibitor was added to 0.5 ml of buffer (150 mM sodium chloride aqueous solution containing 150 mM Tris, pH 8.0) and the mixture was heated for 5 minutes, 0.1 ml of trypsin solution was added thereto. The mixture was reacted for 5 minutes. Furthermore, 0.1 ml of PS-915 solution (10 mM) was added thereto. The mixture was again reacted for 5 minutes. Then, 2 ml of the color-forming termination solution [containing 2.5 mg/ml of soybean trypsin inhibitor (manufactured by Sigma Co., No. T-9003)] was added to the reaction mixture. Then the mixture was allowed to stand for 10 minutes and absorbance was measured at 700 nm. IC50 was determined by the method described above.

human plasma kallikrein = target: T4, human plasma kallikrein (Homo sapiens, UniProt P03952); assay: Assay for inhibitory activity against kallikrein (synthetic substrate S-2302); details: for IC50: S-2302, pH 8.0, 37° C.
T4 construct: purchased Kabi Co
T4 sequence (P03952 20-638): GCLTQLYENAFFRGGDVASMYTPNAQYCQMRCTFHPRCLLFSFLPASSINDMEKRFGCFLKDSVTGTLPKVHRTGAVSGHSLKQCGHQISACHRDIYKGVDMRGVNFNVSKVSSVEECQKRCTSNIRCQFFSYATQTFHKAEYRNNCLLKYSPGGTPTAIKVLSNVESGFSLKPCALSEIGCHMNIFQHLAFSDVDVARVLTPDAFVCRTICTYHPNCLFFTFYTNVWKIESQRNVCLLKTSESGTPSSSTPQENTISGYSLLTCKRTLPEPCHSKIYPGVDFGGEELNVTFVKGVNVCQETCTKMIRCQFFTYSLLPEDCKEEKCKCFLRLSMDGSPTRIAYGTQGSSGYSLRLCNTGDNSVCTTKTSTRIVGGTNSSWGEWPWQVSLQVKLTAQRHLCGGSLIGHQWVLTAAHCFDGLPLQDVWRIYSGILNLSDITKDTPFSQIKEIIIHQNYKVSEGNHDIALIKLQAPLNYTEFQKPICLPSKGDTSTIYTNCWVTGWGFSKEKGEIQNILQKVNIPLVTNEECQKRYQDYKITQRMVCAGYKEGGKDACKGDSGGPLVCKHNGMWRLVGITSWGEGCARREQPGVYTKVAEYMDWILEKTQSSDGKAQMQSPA
Excerpt: as §1, §2
Assay For Inhibitory Activity Against Kallikrein
To 0.4 ml of buffer (150 mN sodium chloride aqueous solution containing 50 mM Tris, pH 8.0) was added 0.1 ml each of aqueous solutions of the inhibitor having various concentrations and the mixture was heated for 5 minutes. Then, 0.1 ml of kallikrein solution (containing 0.5% bovine serum albumin, No. A-8022 of Sigma Co.) was added thereto, and the mixture was reacted for 5 minutes. Furthermore, 10 mM S-2302 aqueous solution (0.1 ml) was added thereto, and the mixture was again reacted for 5 minutes. Then, 5 ml of 20% acetic acid aqueous solution was added to terminate the reaction. Absorbance was measured at 405 nm and IC50 was determined by the method described above.

human factor Xa = target: T5, human factor Xa (Homo sapiens, UniProt P00742); assay: Assay for inhibitory activity against factor Xa (synthetic substrate PS-2000); details: for IC50: PS-2000, pH 8.5, 37° C.
T5 construct: purchased Boehringer Mannheim
T5 sequence (P00742 235-488 limits assumed): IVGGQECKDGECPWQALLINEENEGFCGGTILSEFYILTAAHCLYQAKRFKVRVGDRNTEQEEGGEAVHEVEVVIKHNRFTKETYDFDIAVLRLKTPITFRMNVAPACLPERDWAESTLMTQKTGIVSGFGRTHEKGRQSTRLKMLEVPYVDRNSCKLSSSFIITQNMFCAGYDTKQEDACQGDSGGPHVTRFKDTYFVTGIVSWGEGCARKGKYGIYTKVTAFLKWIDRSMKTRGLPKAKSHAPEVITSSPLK
T5 sequence (P00742 41-179 partner limits assumed): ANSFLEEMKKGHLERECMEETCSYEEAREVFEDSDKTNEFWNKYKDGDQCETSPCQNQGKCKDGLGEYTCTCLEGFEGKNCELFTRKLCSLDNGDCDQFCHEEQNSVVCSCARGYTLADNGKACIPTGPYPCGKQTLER
Excerpt: as §1, §2
Assay For Inhibitory Activity Against Factor Xa
To 0.3 ml of buffer (150 mM sodium chloride aqueous solution containing 50 mM Tris, pH 8.5) was added 0.1 ml each of an aqueous solution of the inhibitor having various concentrations. The mixture was heated for 5 minutes. Then, 0.1 ml of factor Xa solution (150 mM solution chloride aqueous solution containing 50 mM Tris and 20 mM calcium chloride, pH 8.5) was added thereto, and the mixture was reacted for 5 minutes. Furthermore,5% polyvinylpyrrolidone solution (0.1 ml) containing 10 mM PS-2000 was added thereto, and the mixture was again reacted for 5 minutes. Then, 2 ml of the color-forming termination solution was added to the reaction mixture. Then the mixture was allowed to stand for 10 minutes and absorbance was measured at 700 nm. IC50 was determined by the method described above.

urokinase = target: T6, urokinase (Homo sapiens, UniProt P00749); assay: Assay for inhibitory activity against urokinase (synthetic substrate MUK-34); details: for IC50: MUK-34, pH 8.20, 37° C.
T6 construct: purchased Mochida Pharmaceutical Urokinase 60,000 (60,000 U/vial)
Excerpt: as §1, §2
Assay For Inhibitory Activity Against Urokinase
An aqueous solution (0.1 ml) of […] the inhibitor was added to 0.3 ml of buffer (150 mM sodium chloride aqueous solution containing 50 mM Tris, pH 8.20) and the mixture was heated for 5 minutes. Thereafter 0.1 ml of urokinase solution (containing 50 mM Tris, 150 mM sodium chloride aqueous solution and 0.1% BSA, pH 8.20) was added thereto, and the mixture was reacted for 5 minutes. Furthermore, 10 mM MUK-34 aqueous solution (0.1 ml) was added thereto, and the mixture was reacted for 5 minutes. Then 10% acetic acid aqueous solution (2.0 ml) was added to the mixture to terminate the reaction. Absorbance was measured at 405 nm and IC50 was determined by the method described above.

[1] = Table 3, compounds of the invention, read-out: Plasmin
[2] = Table 3, compounds of the invention, read-out: Thrombin
[3] = Table 3, compounds of the invention, read-out: Trypsin
[4] = Table 3, compounds of the invention, read-out: Kallikrein
[5] = Table 3, compounds of the invention, read-out: Factor
[6] = Table 3, compounds of the invention, read-out: Urokinase
[7] = Table 2, known compounds, read-out: IC50 Plasmin
[8] = Table 2, known compounds, read-out: IC50 Thrombin
[9] = Table 2, known compounds, read-out: IC50 Trypsin
[10] = Table 2, known compounds, read-out: IC50 Kallikrein
[11] = Table 2, known compounds, read-out: IC50 Factor Xa
[12] = Table 2, known compounds, read-out: IC50 Urokinase

IC50 (plasmin; [1]) [nM]	IC50 (thrombin; [2]) [nM]	IC50 (trypsin; [3]) [nM]	IC50 (human plasma kallikrein; [4]) [nM]	IC50 (human factor Xa; [5]) [µM]	Molecule	IC50 (urokinase; [6]) [µM]	inhibitory activity against plasmin (in words) (plasmin)	inhibitory activity against trypsin (in words) (trypsin)	inhibitory activity against kallikrein (in words) (human plasma kallikrein)	inhibitory activity against factor Xa (in words) (human factor Xa)	inhibitory activity against urokinase (in words) (urokinase)	IC50 (plasmin; [7]) [nM]	inhibitory activity against thrombin (in words) (thrombin)	IC50 (thrombin; [8]) [nM]	IC50 (trypsin; [9]) [nM]	IC50 (human plasma kallikrein; [10]) [nM]	IC50 (human factor Xa; [11]) [µM]	IC50 (urokinase; [12]) [µM]
2600	930	68	200	15	N=C(N)NCCC[C@@H](C=O)NC(=O)[C@@H]1CCCN1C(=O)[C@H](N)CCCCNC(=O)Cc1ccccc1 [Example 9, N-ε-phenylacetyl-D-lysyl-L-prolyl-L-argininal sulfate] (H-[dK](PhAc)-Pro-Arg-aldehyde)	83	–	–	–	–	–	–	–	–	–	–	–	–
–	–	–	–	–	CC(=O)N[C@@H](CC(C)C)C(=O)N[C@@H](CC(C)C)C(=O)N[C@H](C=O)CCCNC(=N)N [Example A1, acetyl-L-leucyl-L-leucyl-argininal, reference compound]	–	do not strongly inhibit	inhibit	do not strongly inhibit	do not strongly inhibit	do not strongly inhibit	–	–	–	–	–	–	–
–	–	–	–	–	N=C(N)NCCC[C@@H](C=O)NC(=O)[C@@H]1CCCN1C(=O)[C@H](N)Cc1ccccc1 [Example A2, D-phenylalanyl-L-prolyl-L-argininal, reference compound]	–	do not strongly inhibit	inhibit	do not strongly inhibit	do not strongly inhibit	do not strongly inhibit	19000	inhibit	25	69	31000	25	42
–	–	–	–	–	CCOC(=O)c1ccc(OC(=O)CCCCCN=C(N)N)cc1 [Example A3, reference compound]	–	–	–	–	–	–	40000	–	32000	1900	4500	13	1.1
250	1200	43	170	1.1	N-α-(2-naphthalenesulfonyl)-N-ε-(p-tosyl)-D-lysyl-L-prolyl-L-argininal 1/2 sulfate [Example 20]	6.6	–	–	–	–	–	–	–	–	–	–	–	–
60	630	35	38	0.46	N-α-N-ε-di(p-tosyl)-D-lysyl-L-prolyl-L-argininal1/2 sulfate [Example 17]	3.5	–	–	–	–	–	–	–	–	–	–	–	–
550	200	32	40	3.5	N-ε-(2-naphthalenesulfonyl)-D-lysyl-L-prolyl-L-argininal sulfate [Example 3]	–	–	–	–	–	–	–	–	–	–	–	–	–
1000	350	11	200	4.8	N-ε-(p-toluoyl)-D-lysyl-L-prolyl-L-argininal sulfate [Example 7]	7.9	–	–	–	–	–	–	–	–	–	–	–	–

Molecule	IC50 (plasmin; [1]) [nM]	IC50 (thrombin; [2]) [nM]	IC50 (trypsin; [3]) [nM]	IC50 (human plasma kallikrein; [4]) [nM]	IC50 (human factor Xa; [5]) [µM]	IC50 (urokinase; [6]) [µM]	inhibitory activity against plasmin (in words) (plasmin)	inhibitory activity against trypsin (in words) (trypsin)	inhibitory activity against kallikrein (in words) (human plasma kallikrein)	inhibitory activity against factor Xa (in words) (human factor Xa)	inhibitory activity against urokinase (in words) (urokinase)	IC50 (plasmin; [7]) [nM]	inhibitory activity against thrombin (in words) (thrombin)	IC50 (thrombin; [8]) [nM]	IC50 (trypsin; [9]) [nM]	IC50 (human plasma kallikrein; [10]) [nM]	IC50 (human factor Xa; [11]) [µM]	IC50 (urokinase; [12]) [µM]
Cc1ccc(S(=O)(=O)NCCCC[C@@H](N)C(=O)N2CCC[C@H]2C(=O)N[C@H](C=O)CCCNC(=N)N)cc1 [Example 1, N-ε-(p-tosyl)-D-lysyl-L-prolyl-L-argininal sulfate] (H-[dK](Tos)-Pro-Arg-aldehyde)	1500	300	48	29	6.5	35	–	–	–	–	–	–	–	–	–	–	–	–
N-α-isobutoxycarbonyl-N-ε-(p-tosyl)-D-lysyl-L-prolyl-L-argininal 1/2 sulfate [Example 15]	59	440	22	37	0.35	1.4	–	–	–	–	–	–	–	–	–	–	–	–
N-ε-Ethanesulfonyl-D-lysyl-L-prolyl-L-argininal sulfate [Example 5]	6300	1300	65	5400	18	81	–	–	–	–	–	–	–	–	–	–	–	–
N-ε-acetyl-D-lysyl-L-prolyl-L-argininal sulfate [Example 10]	4300	330	60	4000	4.1	40	–	–	–	–	–	–	–	–	–	–	–	–
